Measurements taken from ChEMBL document CHEMBL1148809, “Biological evaluation, structure-activity relationships, and three-dimensional quantitative structure-activity relationship studies of dihydro-beta-agarofuran sesquiterpenes as modulators of P-glycoprotein-dependent multidrug resistance” (J Med Chem, 2007).
pKi: −log10 of the molar value.

Experiments:
[1] = target: ATP-dependent translocase ABCB1 (Homo sapiens, UniProt P08183); experiment: (§1) Inhibition of human Pgp-mediated DNR transport in NIH3T3 cells by microplate assay; format: cell-based, Mus musculus; details: for pKi: read-out: Ki; for Ki: read-out: Log Ki (converted)
Chain of ATP-dependent translocase ABCB1 (P08183 whole entry): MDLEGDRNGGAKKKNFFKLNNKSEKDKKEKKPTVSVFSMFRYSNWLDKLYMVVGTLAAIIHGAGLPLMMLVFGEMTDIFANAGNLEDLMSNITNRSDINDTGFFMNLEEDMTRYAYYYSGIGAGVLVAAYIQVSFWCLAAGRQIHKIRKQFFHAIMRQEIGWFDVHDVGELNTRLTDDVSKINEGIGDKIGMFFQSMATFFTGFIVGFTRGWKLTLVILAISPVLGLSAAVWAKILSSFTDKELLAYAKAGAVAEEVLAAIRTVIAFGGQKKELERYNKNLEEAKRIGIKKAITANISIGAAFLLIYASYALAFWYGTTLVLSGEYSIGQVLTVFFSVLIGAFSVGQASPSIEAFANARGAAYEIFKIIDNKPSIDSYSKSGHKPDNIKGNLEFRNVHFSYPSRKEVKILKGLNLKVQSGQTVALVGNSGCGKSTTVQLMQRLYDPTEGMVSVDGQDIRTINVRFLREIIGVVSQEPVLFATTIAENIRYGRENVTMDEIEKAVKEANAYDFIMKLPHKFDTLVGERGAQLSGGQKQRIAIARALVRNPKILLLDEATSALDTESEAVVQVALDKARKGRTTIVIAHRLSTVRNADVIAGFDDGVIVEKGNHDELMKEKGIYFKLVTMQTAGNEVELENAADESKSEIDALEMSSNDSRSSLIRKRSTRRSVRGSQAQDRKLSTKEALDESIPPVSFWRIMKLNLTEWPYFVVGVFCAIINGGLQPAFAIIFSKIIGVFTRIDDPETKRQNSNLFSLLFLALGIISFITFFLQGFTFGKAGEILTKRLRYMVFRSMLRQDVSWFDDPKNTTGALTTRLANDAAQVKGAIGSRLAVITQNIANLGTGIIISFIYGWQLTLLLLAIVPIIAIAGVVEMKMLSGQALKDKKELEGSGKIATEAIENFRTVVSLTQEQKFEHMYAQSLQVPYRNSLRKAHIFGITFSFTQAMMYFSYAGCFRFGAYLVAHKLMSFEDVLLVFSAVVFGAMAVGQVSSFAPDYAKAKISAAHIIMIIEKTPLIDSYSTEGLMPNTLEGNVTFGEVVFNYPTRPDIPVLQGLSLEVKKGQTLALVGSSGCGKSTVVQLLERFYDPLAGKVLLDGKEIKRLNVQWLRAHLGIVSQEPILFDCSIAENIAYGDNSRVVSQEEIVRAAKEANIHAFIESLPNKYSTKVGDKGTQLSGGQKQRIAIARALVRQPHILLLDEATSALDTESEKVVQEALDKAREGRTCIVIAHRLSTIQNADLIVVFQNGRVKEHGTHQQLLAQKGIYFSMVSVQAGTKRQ

P-gp (ABCB1) = P-gp (ABCB1) (Homo sapiens, UniProt P08183); experiment: as §1; format: cell-based, Mus musculus; details: mouse, NIH3T3 cells expressing human P-gp, probe DNR; read-out: Imax
Chain of P-gp (ABCB1) (P08183 whole entry): as above

[2] = Partition coefficient, log P of the compound; format: physicochemical; details: octanol/water

Compound	pKi [1]	Emax (P-gp (ABCB1)) [%]	logP ([2]; read-out: LogP)	logP [2]	Ki [1] [µM]
CC(=O)OC[C@]12[C@H](OC(=O)c3ccccc3)C(=O)[C@@H]3[C@@H](OC(C)=O)[C@]1(OC3(C)C)[C@H](C)C[C@H](OC(C)=O)[C@@H]2O	4.74	91.7	5	–	–
CC(=O)OC[C@]12[C@H](OC(C)=O)C(=O)[C@@H]3[C@@H](O)[C@]1(OC3(C)C)[C@](C)(O)C[C@H](OC(C)=O)[C@@H]2OC(C)=O	5.12	39	3.3	–	–
C[C@@H]1[C@@H](O)[C@@H](O)[C@H](OC(=O)c2ccccc2)[C@@]2(C)[C@@H](OC(=O)/C=C/c3ccccc3)C[C@@H]3C[C@]12OC3(C)C	5.16	76.6	6	–	–
CC(=O)OC[C@]12[C@H](OC(=O)c3ccccc3)[C@H](OC(=O)c3ccccc3)[C@@H]3[C@@H](OC(C)=O)[C@]1(OC3(C)C)[C@H](C)C[C@H](OC(=O)c1ccccc1)[C@@H]2OC(C)=O	4.47	100	–	10.3	–
CC(=O)OC[C@]12[C@@H](OC(=O)c3ccccc3)[C@@H](OC(=O)c3ccccc3)[C@@H]3[C@@H](OC(C)=O)[C@]1(OC3(C)C)[C@](C)(O)C[C@H](OC(C)=O)[C@@H]2OC(C)=O	5.76	97	7.6	–	–
CC(=O)O[C@H]1[C@@H](O)[C@H](OC(=O)c2ccccc2)[C@@]2(C)[C@@H](OC(=O)/C=C/c3ccccc3)C[C@@H]3C[C@]2(OC3(C)C)[C@@H]1C	5.37	63.7	6.2	–	–
CC(=O)O[C@H]1[C@H](OC(=O)c2ccccc2)[C@@]2(C)[C@@H](OC(=O)c3ccccc3)C[C@@H]3[C@@H](OC(C)=O)[C@]2(OC3(C)C)[C@](C)(O)[C@H]1OC(=O)c1cccnc1	5.43	98.8	8	–	–
CC(=O)OC[C@]12[C@@H](OC(=O)c3ccccc3)C[C@@H]3[C@@H](OC(C)=O)[C@]1(OC3(C)C)[C@H](C)C[C@H](OC(=O)c1ccccc1)[C@@H]2OC(C)=O	6.20	88	7.7	–	–
CC(=O)O[C@@H]1[C@H]2C[C@H](OC(=O)c3ccco3)[C@]3(C)[C@@H](OC(C)=O)[C@@H](OC(=O)c4ccco4)C[C@@](C)(O)[C@@]13OC2(C)C	5.38	61.7	5.1	–	–
CC(=O)O[C@H]1[C@@H](OC(=O)c2cccnc2)C[C@@](C)(O)[C@]23OC(C)(C)[C@H](C[C@H](OC(=O)c4ccco4)[C@]12C)[C@H]3OC(=O)c1ccco1	5.13	100	6.1	–	–
CC(=O)OC[C@]12[C@@H](OC(=O)c3ccccc3)C[C@@H]3[C@@H](OC(C)=O)[C@]1(OC3(C)C)[C@](C)(O)C[C@H](OC(C)=O)[C@@H]2OC(C)=O	5.36	85	5	–	3.47
CC(=O)O[C@H]1C[C@@](C)(O)[C@]23OC(C)(C)[C@H](C[C@H](OC(=O)c4ccco4)[C@]2(C)[C@H]1O)[C@H]3OC(=O)c1ccco1	4.00	100	4.3	–	–
CC(=O)O[C@H]1CC[C@@](C)(O)[C@]23OC(C)(C)[C@H](C[C@H](OC(=O)c4ccco4)[C@]12C)[C@H]3OC(=O)c1ccco1	5.18	96.3	5.3	–	–
CC(=O)O[C@@H]1C[C@@](C)(O)[C@@]23C[C@@H](C[C@H](OC(=O)/C=C/c4ccccc4)[C@]2(C)[C@H]1OC(=O)c1ccccc1)C(C)(C)O3	5.12	100	6.5	–	–
CC(=O)O[C@H]1[C@@H]2[C@@H](OC(C)=O)[C@@]3(OC2(C)C)[C@](C)([C@H]1OC(=O)c1ccccc1)[C@@H](OC(=O)c1ccccc1)[C@@H](OC(=O)c1ccccc1)C[C@@]3(C)O	4.95	80.7	–	9.4	–
CC(=O)O[C@H]1C[C@@](C)(O)[C@]23OC(C)(C)[C@H](C[C@H](OC(=O)c4ccco4)[C@]2(C)[C@H]1OC(C)=O)[C@H]3OC(C)=O	4.00	–	3.8	–	–
CCCCCCCCCCCC(=O)O[C@@H]1[C@H]2C[C@H](OC(=O)c3ccco3)[C@]3(C)[C@@H](OC(C)=O)[C@@H](OC(=O)c4ccccc4)C[C@@](C)(O)[C@@]13OC2(C)C	5.29	29.2	–	11.4	–
CC(=O)OC[C@]12[C@H](OC(=O)c3ccccc3)C(=O)[C@@H]3[C@@H](OC(C)=O)[C@]1(OC3(C)C)[C@H](C)C[C@H](OC(C)=O)[C@@H]2OC(C)=O	5.60	62.3	6.1	–	–
CC(=O)O[C@@H]1C[C@@](C)(O)[C@@]23C[C@@H](C[C@H](OC(=O)c4ccccc4)[C@]2(C)[C@H]1OC(=O)c1ccccc1)C(C)(C)O3	5.12	89.8	6.6	–	–
CC(=O)OC[C@]12[C@H](OC(=O)c3ccccc3)C(=O)[C@@H]3[C@@H](OC(C)=O)[C@]1(OC3(C)C)[C@](C)(O)C[C@H](OC(=O)c1ccccc1)[C@@H]2OC(=O)c1ccccc1	5.99	80	–	10	–
CC(=O)O[C@H]1[C@H](OC(=O)c2ccccc2)[C@@]2(C)[C@@H](OC(=O)/C=C/c3ccccc3)C[C@@H]3[C@@H](OC(C)=O)[C@]2(OC3(C)C)[C@](C)(O)[C@H]1OC(=O)c1cccnc1	4.60	100	8	–	–
CC(=O)OC[C@]12[C@@H](OC(=O)c3ccco3)C[C@@H]3[C@@H](OC(C)=O)[C@]1(OC3(C)C)[C@](C)(O)C[C@H](OC(=O)c1ccco1)[C@@H]2OC(=O)c1ccco1	5.35	99.4	6.5	–	–
CC(=O)O[C@H]1C[C@@](C)(O)[C@]23OC(C)(C)[C@H](C[C@H](OC(=O)c4ccco4)[C@]2(C)[C@H]1OC(C)=O)[C@H]3OC(=O)c1ccccc1	5.05	67.9	6.1	–	–
CC(=O)OC[C@]12[C@H](OC(C)=O)C(=O)[C@@H]3[C@@H](OC(C)=O)[C@]1(OC3(C)C)[C@](C)(O)[C@@H](OC(C)=O)[C@H](OC(C)=O)[C@@H]2OC(=O)c1ccccc1	5.19	53.9	6	–	0.302
CC(=O)OC[C@]12[C@H](OC(=O)c3ccccc3)[C@H](OC(=O)c3ccccc3)[C@@H]3[C@@H](OC(C)=O)[C@]1(OC3(C)C)[C@H](C)C[C@H](OC(=O)c1ccccc1)[C@@H]2OC(=O)c1ccccc1	5.70	29.3	–	–	–

Second part, led by results:

pKi [1]	Emax (P-gp (ABCB1)) [%]	logP ([2]; read-out: LogP)	logP [2]	Compound	Ki [1] [µM]
5.66	80.5	6.5	–	CC(=O)O[C@H]1[C@@H](OC(=O)c2ccco2)C[C@@](C)(O)[C@]23OC(C)(C)[C@H](C[C@H](OC(=O)c4ccco4)[C@]12C)[C@H]3OC(=O)c1ccco1	–
5.90	88.7	6.8	–	CC(=O)O[C@H]1[C@@H]2C[C@@]3(OC2(C)C)[C@](C)([C@H]1OC(=O)c1ccccc1)[C@@H](OC(=O)c1ccccc1)[C@H](OC(C)=O)[C@H](OC(C)=O)[C@@]3(C)O	–
5.91	100	–	9.6	CC(=O)OC[C@@]12[C@@H](OC(=O)c3ccccc3)CC[C@@](C)(O)[C@]13OC(C)(C)[C@H]([C@@H](OC(=O)c1ccccc1)[C@H]2OC(=O)c1ccccc1)[C@H]3OC(C)=O	–
5.60	68	5.7	–	CC(=O)O[C@H]1[C@@H](OC(=O)c2ccccc2)C[C@@](C)(O)[C@]23OC(C)(C)[C@H](C[C@H](OC(=O)c4ccco4)[C@]12C)[C@H]3O	–
5.87	100	7.8	–	CC(=O)O[C@H]1[C@@H]2C[C@@]3(OC2(C)C)[C@](C)([C@H]1OC(=O)c1ccccc1)[C@@H](OC(=O)c1cccnc1)[C@H](OC(C)=O)[C@H](OC(=O)c1ccccc1)[C@@]3(C)O	–
5.46	45.3	7.2	–	CC(=O)O[C@H]1C[C@@](C)(O)[C@]23OC(C)(C)[C@H](C[C@H](OC(=O)c4ccco4)[C@]2(C)[C@H]1OC(=O)c1ccccc1)[C@H]3OC(=O)c1ccco1	–
6.15	85.8	8.4	–	CC(=O)OC[C@]12[C@@H](OC(=O)c3ccccc3)C[C@@H]3[C@@H](OC(=O)c4ccccc4)[C@]1(OC3(C)C)[C@H](C)C[C@H](OC(=O)c1cccnc1)[C@@H]2OC(C)=O	–
6.24	95.5	6.6	–	CCCCCO[C@H]1C[C@@](C)(O)[C@]23OC(C)(C)[C@H](C[C@H](OC(=O)c4ccco4)[C@]2(C)[C@H]1OC(C)=O)[C@H]3OC(=O)c1ccco1	–
5.74	87.7	7	–	CCCCCO[C@@H]1[C@@H]2[C@@H](OC(C)=O)[C@@]3(OC2(C)C)[C@@](COC(C)=O)([C@@H](OC(C)=O)CC[C@@]3(C)O)[C@@H]1OC(=O)c1ccccc1	–
5.68	95.2	7.6	–	CC(=O)O[C@H]1[C@H](OC(=O)/C=C/c2ccccc2)[C@@]2(C)[C@@H](OC(=O)c3ccccc3)C[C@@H]3C[C@]2(OC3(C)C)[C@](C)(O)[C@H]1OC(=O)c1cccnc1	–
5.53	92.7	6.1	–	CC(=O)O[C@@H]1[C@H]2C[C@H](OC(=O)c3ccco3)[C@]3(C)[C@@H](OC(C)=O)[C@@H](OC(=O)c4ccccc4)C[C@@](C)(O)[C@@]13OC2(C)C	–
5.54	95.7	5.1	–	CC(=O)O[C@H]1C[C@@](C)(O)[C@]23OC(C)(C)[C@H](C[C@H](OC(=O)c4ccco4)[C@]2(C)[C@H]1OC(C)=O)[C@H]3OC(=O)c1ccco1	–
6.24	100	8.2	–	CC(=O)OC[C@]12[C@@H](OC(=O)c3ccccc3)C[C@@H]3[C@@H](OC(=O)c4ccccc4)[C@]1(OC3(C)C)[C@](C)(O)C[C@H](OC(=O)c1cccnc1)[C@@H]2OC(C)=O	–
6.15	93.1	7.1	–	CC(=O)O[C@H]1[C@@H](OC(=O)c2ccccc2)C[C@@](C)(O)[C@]23OC(C)(C)[C@H](C[C@H](OC(=O)c4ccco4)[C@]12C)[C@H]3OC(=O)c1ccco1	–
